The subject of the experiment is Wnt pathway. Put plainly: Wnt pathway Super-top flash (STF) reporter gene assay (primary assay). As to conditions: HEK293 STF cells co-cultured 1:1 with L Wnt3A cells; 48 h incubation; inhibition of luminescence signaling. The format is cell-based. How it is done:
The primary assay is based on Wnt pathway Super-top flash (STF) reporter gene assay:
HEK293 STF stable clones (HEK293 cells stably transfected with “Super-Top Flash” TCF-luciferase reporter plasmid) were kept in complete culture medium (DMEM with 4 mM L-Gln, 1.5 g/L sodium bicarbonate and 4.5 g/L glucose containing 6 μg/mL Blasticidin and 10% FBS). L Wnt3A cells (CRL-2647, ATCC) were kept in DMEM (Gibico) containing 10% FBS (Hyclone). HEK293 STF and L Wnt3A cells were harvested when 90% confluence and cell suspension was mixed with a fixed ratio of 1:1 (HEK293 STF: L Wnt3A). 100 μL/well of mixed cells suspension was added to the 96-well-plate with final cell concentration of 12,000 cells/well and then cultured for an additional 24 hours before adding compounds.
Compounds were diluted in DMSO in sequence and then diluted with DMEM medium. 20 μL medium containing compound was added to the cells according to the pre-setting dose. Cell plates were incubated at 37° C. for an additional 48 hours.
50 μL luciferase solution (Bright-Glo, Promega) was added to each well […] the 48 h incubation. The plates were incubated at room temperature for 5 min under gentle shaking. Luminescence signaling was measured with a plate reader (PHERAstar FS, BMG). The IC50 (potency) of compounds was calculated based on the inhibition of luminescence signaling.
For orientation: A reporter such as luciferase makes a cellular process visible.

Where only a bound is given, the exact number is not on record here.

Take `Cc1cc(-c2ccc(CNc3nccc(-c4ccc5ccccc5c4)n3)cc2)ccn1` [Compound A-152]: the half-maximal inhibitory concentration (IC50) (as a rule, the concentration at which inhibition is half-maximal) was 4.9 nM.
As for `Cc1cc(-c2ccc(CNc3ncnc(-c4ccc5nncn5c4)c3F)cc2)ccn1` [Compound A-55], the figure is 3000 nM.
As for `Cc1cc(-c2ncc(CNc3nsc(N4CCc5ncccc5C4)n3)cc2C#N)ccn1` [Compound A-198, 5-((5-(7,8-dihydro-1,6-naphthyridin-6(5H)-yl)-1,2,4-thiadiazol-3-ylamino)methyl)-2′-methyl-2,4′-bipyridine-3-carbonitrile], the figure is 0.42 nM; as for `Cc1cc(-c2ccc(CNc3ncnc(-c4ccc5ncccc5c4)c3F)cn2)ccn1` [Compound A-31], 1 nM; as for `Cc1cc(-c2ccc(CNc3ncnc(N4CCc5c(F)cccc5C4)c3F)cc2)ccn1` [Compound A-24], 37 nM.
Turning to `Cc1cc(-c2ccc(CNc3ncnc(-c4ccc5ccccc5c4)n3)cc2)ccn1` [Compound A-167], the IC50 is 120 nM.
Regarding `Cc1cc(-c2ncc(CNc3ncnc(C#Cc4cccnc4)c3F)cc2F)ccn1` [Compound A-69, 5-fluoro-N-((3-fluoro-2′-methyl-2,4′-bipyridin-5-yl)methyl)-6-(pyridin-3-ylethynyl)pyrimidin-4-amine], the half-maximal inhibitory concentration (IC50) was determined as 73 nM.
For `Cc1cc(-c2ccc(CNc3ncnc(-c4ccc5nccn5c4)c3F)cc2)ccn1` [Compound A-11], the half-maximal inhibitory concentration (IC50) is 1.6 nM.
As for `Cc1cc(-c2ncc(CNc3ncnc(NCc4cccnc4)c3F)cc2F)ccn1` [Compound A-82], the figure is 338 nM; as for `Cc1cc(-c2ccnc(NCc3cnc(-c4ccnc(C)c4)c(C#N)c3)c2F)ccn1` [Compound A-127], 0.34 nM.
Turning to `N#Cc1ccc(NCCNc2nccc(-c3ccc4ncccc4c3)c2F)nc1` [Compound A-120], the IC50 came out at 12 nM.
Turning to `Cc1cc(-c2ncc(CNc3ncnc(N4CCn5nccc5C4)c3F)cc2C#N)ccn1` [Compound A-201], the half-maximal inhibitory concentration (IC50) came out at 0.8 nM.
As for `Cc1cc(-c2ccc(CNc3ncnc(-c4ccccc4Cl)c3F)cc2)ccn1` [Compound A-18], the figure is 480 nM.
As for `COc1cc(CNc2ncnc(-c3ccc4ncccc4c3)c2F)cnc1-c1ccnc(C)c1` [Compound A-65], the figure is 0.44 nM; as for `c1cnc2ccc(-c3ccnc(NCc4ccc(-n5ccnc5)cc4)n3)cc2c1` [Compound A-173], 106 nM.
As for `Cc1cc(-c2ncc(CNc3ncnc(-c4ccc5ccccc5c4)c3F)cc2F)ccn1` [Compound A-35], the 50% inhibitory concentration (IC50) was 4 nM.
As to `Cc1cc(-c2ncc(CNc3nccc(-c4ccn5nccc5n4)c3F)cc2C#N)ccn1` [Compound A-96], the IC50 worked out at 0.2 nM.
On to `N#Cc1ccc2cc(CNc3ncnc(-c4ccc5ncccc5c4)c3F)ccc2c1` [Compound A-42, 6-((5-fluoro-6-(quinolin-6-yl)pyrimidin-4-ylamino)methyl)-2-naphthonitrile], for which the IC50 was determined as 0.7 nM.
As for `N#Cc1ccc2cc(CNc3ncnc(-c4ccc5ncccc5c4)c3F)cnc2c1` [Compound A-75], the figure is 0.52 nM; as for `Cc1cc(-c2ccc(CNc3ncnc(-c4ccc5cnccc5c4)c3F)cc2)ccn1` [Compound A-6], 4.7 nM; as for `Cc1cc(-c2ccc(CNc3ncnc(-c4ccc5ccccc5c4)c3C#N)cc2)ccn1` [Compound A-144], 40 nM.
With `Cc1cc(-c2ccc(CNc3ncnc(-c4ccc5c(c4)OCCO5)c3F)cc2)ccn1` [Compound A-16], the half-inhibitory concentration (IC50) worked out at 27 nM.
As for `Fc1c(NCc2ccc(-c3ccncn3)cc2)ncnc1-c1ccc2ncccc2c1` [Compound A-77], the IC50 is 1.6 nM.
As for `Cc1cncc(-c2ccnc(NCc3cnc(-c4ccnc(C)c4)c(C#N)c3)c2F)c1` [Compound A-132], the figure is 0.25 nM; as for `Cc1cc(-c2ccc(CNc3ncnc(N4Cc5ccccc5C4)c3F)cc2)ccn1` [Compound A-52], 17 nM; as for `Cc1cc(-c2ccc(CNc3cccc(-c4ccc5ccccc5c4)c3)cc2)ccn1` [Compound A-149], 603 nM.
For `Cc1cc(-c2ccc(CNc3ncnc(N4CCn5c(nnc5C(F)(F)F)C4)c3F)cc2)ccn1` [Compound A-59], the half-maximal inhibitory concentration (IC50) was determined as 230 nM.
As for `Cc1cc(-c2ccc(CNc3ccnc(-c4ccc5ccccc5c4)c3)cc2)ccn1` [Compound A-164], the figure is 3000 nM; as for `Cc1cc(-c2ccc(CNc3ncnc(-c4ccc5ncsc5c4)c3F)cc2)ccn1` [Compound A-12], 0.3 nM.
Consider `N#Cc1ccc2cc(CNc3nccc(-c4ccc5ncccc5c4)n3)cnc2c1` [Compound A-177], for which the half-maximal inhibitory concentration (IC50) stood at 100 nM.
As for `Cc1cc(-c2ccc(CNc3nccc(N4CCc5ccccc5C4)n3)cc2)ccn1` [Compound A-155], the figure is 229 nM.
As for `N#Cc1cnc2cc(CNc3nccc(-c4ccc5ncccc5c4)n3)ccc2c1` [Compound A-179, 7-((4-(quinolin-6-yl)pyrimidin-2-ylamino)methyl)quinoline-3-carbonitrile], the figure is 500 nM; as for `Cc1cc(-c2ccc(CNc3cc(-c4ccc5ccccc5c4)ncn3)cc2)ccn1` [Compound A-134], 24 nM.
As for `Cc1cc(-c2ncc(CNc3nccc(-c4ccc5ncccc5c4)n3)cc2F)ccn1` [Compound A-168], the figure is 0.85 nM; as for `Cc1cc(-c2ccc(CNc3nccc(-c4ccc5ncccc5c4)c3F)cn2)ccn1` [Compound A-101], 0.31 nM.
For the compound `Cc1cc(-c2ccc(CNc3cc(-c4ccc5cnccc5c4)ncn3)cc2)ccn1` [Compound A-148], the IC50 amounted to 10 nM.
Turning to `Cc1cc(-c2ccc(CNc3ncnc(-c4ccc5ccncc5c4)c3F)cc2)ccn1` [Compound A-7], the concentration for half-maximal inhibition (IC50) is 7.4 nM.
Consider `Cc1cn(-c2ccc(CNc3nsc(-c4ccc5ncccc5c4)n3)cc2)cn1` [Compound A-187], for which the IC50 worked out at 51 nM.
As for `Cc1cc(-c2ccc(CNc3cc(N4CCc5ccccc5C4)ncn3)cc2)ccn1` [Compound A-133], the figure is 34 nM; as for `O=S1(=O)CCN(c2ccc(CNc3nccc(-c4ccc5ncccc5c4)n3)cn2)CC1` [Compound A-180], 300 nM; as for `Cc1cc(-c2ncc(CNc3nccc(-c4ccc5ncccc5c4)n3)cn2)ccn1` [Compound A-172], 1.7 nM.
As for `NC(=O)c1ccc2cc(CNc3ncnc(-c4ccc5ncccc5c4)c3F)ccc2c1` [Compound A-43, 6-((5-fluoro-6-(quinolin-6-yl)pyrimidin-4-ylamino)methyl)-2-naphthamide], the figure is 75 nM; as for `Cc1cc(-c2ncc(CNc3ncnc(N4CCc5ncsc5C4)c3F)cc2F)ccn1` [Compound A-54], 0.67 nM.
As for `Cc1cc(-c2ccc(CNc3ncnc(-c4ccccc4)c3F)cc2)ccn1` [Compound A-17], the IC50 was greater than 1000 nM.
As for `Cc1cc(-c2ccc(CNc3ncnc(-c4ccc5nn(C)cc5c4)c3F)cc2)ccn1` [Compound A-14], the figure is 5.9 nM; as for `Cn1nccc1-c1ccc(CNc2ncnc(-c3ccc4ccccc4c3)c2F)cc1` [Compound A-39], 129 nM.
Take `COc1cc(CNc2nccc(-c3ccc4ncccc4c3)n2)cnc1-c1ccnc(C)c1` [Compound A-175]: the IC50 is 0.74 nM.
As for `Cc1cc(-c2ncc(CNc3ncnc(N4CCOc5ncccc5C4)c3F)cc2F)ccn1` [Compound A-89], the figure is 14 nM.
Consider `Cc1cc(-c2ncc(CNc3nccc(-c4cncc(Cl)c4)c3F)cc2F)ccn1` [Compound A-116], for which the IC50 worked out at 8 nM.
Regarding `Cc1cc(-c2ncc(CNc3ncnc(N4CCc5ncccc5C4)c3F)cn2)ccn1` [Compound A-61, 6-(7,8-dihydro-1,6-naphthyridin-6(5H)-yl)-5-fluoro-N-((2-(2-methylpyridin-4-yl)pyrimidin-5-yl)methyl)pyrimidin-4-amine], the concentration for half-maximal inhibition (IC50) came to 1.3 nM.
As for `Cc1cc(-c2cnc(CNc3nccc(-c4ccc5ncccc5c4)n3)cn2)ccn1` [Compound A-174], the figure is 2.7 nM.
Regarding `Cn1nccc1-c1ccc(CNc2nccc(-c3ccc4ncccc4c3)c2F)cc1` [Compound A-113], the IC50 amounted to 16 nM.
`Cc1cc(-c2ncc(CNc3nccc(-c4ccc5nnccc5c4)c3F)cc2F)ccn1` [Compound A-110]: the half-maximal inhibitory concentration (IC50) came to 1 nM.
`Cc1cc(-c2ncc(CNc3ncnc(-c4ccc5ncccc5c4)c3F)cc2C)ccn1` [Compound A-34]: the IC50 came to 3 nM.
As for `Cc1cc(-c2ccc(CNc3ncnc(N4CCc5ncccc5C4)c3F)cc2)ccn1` [Compound A-26], the figure is 1.5 nM; as for `CNc1ncc2c(n1)CCN(c1cc(NCc3ccc(-c4ccnc(C)c4)cc3)ncn1)C2=O` [Compound A-138, 2-(methylamino)-6-(6-(4-(2-methylpyridin-4-yl)benzylamino)pyrimidin-4-yl)-7,8-dihydropyrido[4,3-d]pyrimidin-5(6H)-one], 712 nM; as for `Cc1cc(-c2ncc(CNc3ncnc(N4CCc5ncccc5C4)c3F)cc2C)ccn1` [Compound A-46], 4.9 nM.
As for `Cc1cc(-c2ncc(CNc3nsc(-c4ccc5ncccc5c4)n3)cc2C)ccn1` [Compound A-191], the figure is 0.38 nM; as for `Cc1cc(-c2ccc(CNc3ncnc(-c4ccc5ncccc5c4)c3F)cc2)cc[n+]1[O-]` [Compound A-64, 4-(4-((5-fluoro-6-(quinolin-6-yl)pyrimidin-4-ylamino)methyl)phenyl)-2-methylpyridine 1-oxide], 16 nM.

The values are drawn from patent US10450300B2, “Wnt signaling pathway inhibitors and therapeutic applications thereof” (Suzhou Yunxuan Yiyao Keji Youxian Gongsi, priority 2015, dated 2019).
